Assay: Wettability to binder: contact angle of binder liquid on molded product
Assay type: physicochemical
Conditions: for Contact angle with respect to molded product: immediately after dropping about 10 μL
Source text: The bulk molded product of Compound X used in Example 1, and Compound X, lactose and crystalline cellulose in Table 1 (this mixture being referred to as a granulation component) were examined on the effect of the surfactant on the wettability to a binder (10% PVP) solution for the molded product. As a binding liquid, a solution of a binder alone (A), a solution of binder+a 1% polysorbate 80 (B), and a solution of a binder+1% sodium lauryl sulfate (C) were used, and contact angle thereof were measured by using the following method.
About 300 mg of the bulk or the granulation component was weighed, and compression molded using a plain mortar and pestle of 10.0 mmφ by an autograph (manufactured by Shimadzu Co.) under the conditions of a tableting pressure of 10 kN/pestle and a tableting speed of 10 mm/min, thus to obtain a bulk molded product or a molded product of the granulation components. Onto the flat portion of each of the molded products, about 10 μL of the above-described binder liquid was dropped using a Microsyringe (manufactured by ITO SEISAKUSHO CO., LTD.), and the solid and liquid interface immediately after dropping was photographed by a digital microscope (Keyence). After photographing, using an accompanying software, the angle between the liquid surface and the solid surface was measured and referred to as an […].

Contact angle with respect to molded product (binder liquid (A): binder (10% PVP) alone): 56 °
Contact angle with respect to molded product (binder liquid (B): binder (10% PVP) + 1% polysorbate 80): 33 °
Contact angle with respect to molded product (binder liquid (C): binder (10% PVP) + 1% sodium lauryl sulfate): 28 °
Wettability to the binder liquid (surfactant incorporated into the binder liquid): remarkably improved
Compound: COc1cccc([C@H]2O[C@H](CC(=O)Nc3cccc(CCC(=O)O)c3)C(=O)N(CC(C)(C)CO)c3ccc(Cl)cc32)c1OC [Compound X, 3-[3-[[(3R,5S)-7-chloro-5-(2,3-dimethoxyphenyl)-1-(3-hydroxy-2,2-dimethylpropyl)-2-oxo-1,2,3,5-tetrahydro-4,1-benzoxazepine-3-yl]acetyl]aminophenyl]propionic acid]

— patent publication US20070122471A1, “Method of improving suitability for granulation” (Takeda Pharmaceutical Company Limited, priority 2003, published 2007)
